From patent US6054437A, “Method for inducing death of neoplastic cells using piperazine derivatives” (Hitachi Chemical Research Center, Inc., priority 1997, dated 2000)
Entries after “also recorded” stand apart in the source; their conditions may differ. Counter-ions that a name gives are not always drawn. Where a SMILES comes first, the peptide text is derived from it. [ ]: non-standard residue; d: D form. Nle = CCCC[C@H](N)C(=O)O

Key:
[1] = tested on: HS-578T (breast); assay: Cancer cell death assay (LDH release), HS-578T; type: cell-based, human; conditions: for anti-neoplastic activity (LDH release) / potency compared to NCO-700: dose response (FIG. 7)
Protocol: (§1) 1. Cancer Cell Death Assay
(§2) Cell death was measured quantitatively by the release of a marker intracellular enzyme, lactate dehydrogenase (LDH), from damaged or killed cells. LDH released into the extracellular fluid, was measured 24 hours after drug exposure to cancer cells and the enzyme activity was determined by the method of Decker et al. (J. Immunolog Methods 15:61-99, 1988).
A series of analogs related to NCO-700 were assayed in the cancer cell death assay. […] It should be stressed that these analogs were tested alone, without any added chemotherapeutic agent.
Based on Experiment 1 above, the anti-cancer activity of NCO-700, TOP-008, and analogs, TOP-201, 202, 203, 204, 205, 206, 207, and 007, was tested in cancer cell death assays of human cancer cell line HS-578T. In FIGS. 34 (1,000 cells/well) and 35 (1,500 cells/well), a bar graph indicates the activity of a particular analog as measured by the % LDH released (DMSO, dimethyl sulfoxide=control), with higher values of LDH released indicating greater anti-neoplastic activity. All analogs were tested at a concentration of 25 μM.

[2] = tested on: pancreatic cancer cell lines ASPC-1 and HS-766T; assay: Cancer cell death assay (LDH release), pancreatic lines; type: cell-based, human; conditions: 25 μM, 24 hours
Protocol: as §2
As described in Experiment 1, the cancer cell death assays were performed to measure anti-neoplastic activity of the compounds, NCO-700, TOP-001, TOP-003, TOP-005, TOP-006, TOP-008, TOP-009, TOP-010, TOP-012, TOP-013, TOP-015, and TOP-017.
The following cell lines were obtained from the American Type Tissue Culture Laboratory and cultured according to their specifications: Human pancreatic cancer cell lines ASPC-1 and HS-766T.
The results of the experiments are shown in FIG. 32, where a bar graph indicates the activity of a particular analog as measured by the % LDH release stimulated by each analog for 24 hours, with higher values of LDH released indicating greater anti-neoplastic activity (apoptosis). All analogs were tested at a concentration of 25 μM.

[3] = in vivo; cited from earlier work
[4] = tested on: breast cancer cell lines; assay: Cancer cell death assay (LDH release), breast lines; type: cell-based, human; conditions: compound alone, 24 hours
Protocol: as §1, §2
(§3) All cell lines used in the present study were obtained from the American Type Tissue Culture Laboratory and cultured according to their specifications. All were human cancer lines unless otherwise noted. The following cell lines and their tissue of origin used in our studies were:
(§4) The first assays performed measured the anti-neoplastic activity of NCO-700, alone, in cell death assays of a wide variety of human cancer cells. The results of these experiments are shown in FIGS. 1-6, where a dose-response curve of NCO-700 versus % LDH release is plotted, with higher values of LDH released indicating greater anti-neoplastic activity (apoptosis).
(§5) In FIG. 8, a dose-response curve is shown of the effect of TOP-008 on the killing of breast, prostate and colon cell lines.

[5] = tested on: prostate cancer cell lines; assay: Cancer cell death assay (LDH release), prostate lines; type: cell-based, human; conditions: compound alone, 24 hours
Protocol: as §1, §2, §3, §4, §5

[6] = tested on: colon cancer cell lines; assay: Cancer cell death assay (LDH release), colon lines; type: cell-based, human; conditions: compound alone, 24 hours
Protocol: as §1, §2, §3, §4, §5

[7] = tested on: WIDR (colon); assay: Cancer cell survival assay, WIDR; type: cell-based, human; conditions: FIG. 16 versus FIG. 31
Protocol: (§6) Cell survival was assayed in cultured tumor cells. From 500-1000 cells per well were plated in 24-welled culture dishes and exposed to drug for seven days. After drug exposure, a computerized cell imaging technique was utilized to ascertain the number of viable cells remaining in each culture. From the data, survival curves were plotted and a ED50 (drug concentration that permits 50% cell survival) were calculated.
The cancer cell survival assay is an important additional in vitro assay to assess the anti-neoplastic activity of compounds as the cells are given a prolonged exposure (seven days) to the drug. FIGS. 9-16 show the effect of increasing the dose of NCO-700 on the survival of a number of cancer cell lines. […] In the figures, the vertical axis is the object area, which is the number of surviving cancer cells calculated by a computer.
(§7) FIGS. 26-31 show the effect of increasing the dose of TOP-008 against a number of cancer cell lines. […] For example, if the activity of NCO-700 and TOP-008 are compared against the human colon cancer cell line WIDR (FIG. 16 in Experiment 1 versus FIG. 31) it is seen that the effective dose of TOP-008 is much lower in this particular assay.

[8] = tested on: HS-578T (breast); assay: Apoptosis detection assay (annexin V / propidium iodide, flow cytometry); type: cell-based, human; conditions: 50 μM and 25 μM (FIG. 36)
Protocol: Anti-neoplastic activity of TOP-008 was tested using a commercially available kit, Apoptosis Detection Kit, from R & D SYSTEMS (Minnesota) in which annexin V, a member of the calcum and phospholipid binding proteins, is used to detect apoptosis, following the protocol recommended by the manufacturer. TOP-008 was tested at a concentration of 50 μM, using Human breast cancer cell line HS-578T. Cells were washed in cold PBS twice and resuspended in a small volume of 1× binding buffer. Fluorescein-labeled annexin V and propidium iodide were added to the cells. The cells expressing phosphatidylserine on the outer leaflet of cell membranes bind annexin V and cells with a compromised cell membrane allow propidium iodide to bind to the cellular DNA. The resulting cells when immediately analyzed by flow cytometry can present three potential populations of cells: live cells which will not stain with either fluorochrome, necrotic cells which will stain with both fluorochrome, and cells undergoing apoptosis which will stain only with the annexin V-FITC reagent. Analysis was performed on cytometers equipped with a single laser emitting excitation light at 488 nm. The annexin V-FITC-generated signal was detected in the FITC signal detector (FL1). The results are shown in FIG. 36 in which the […]. […]

[9] = tested on: PC-3 (prostate tumor cell line); assay: Apoptosis induced DNA fragmentation (agarose gel); type: cell-based, human; conditions: PC-3, 25 μM, 48 hours
Protocol: PC-3, a prostate tumor cell line, was treated with 25 μM TOP-008, 50 μM NCO-700, or water for 48 hours. The DNA from each sample was purified by phenol extraction, and the fragmentation was resolved on an agarose gel.

[10] = tested on: cancer cell lines; assay: Cancer cell survival assay, a number of cancer cell lines; type: cell-based, human; conditions: FIGS. 26-31, alone
Protocol: as §6, §7

[11] = tested on: cancer cells having multidrug resistance; assay: Induction of cell death in cancer / multidrug-resistant cancer cells (comparison compounds); type: cell-based; conditions: data omitted
Text: The specifically defined present piperazine derivatives having epoxy groups are believed to work through an epoxide group, but E-64 also contains an epoxide group. […] It is believed that not only epoxy group but also a piperazine ring are essential to induction of cell death in cancer. […] Other compounds having similar structures to the present piperazine derivatives, with respect to piperazine rings when present, and epoxy groups, have been tested (data omitted here), but no significant effect was observed, meaning that surprising and unexpected effects on induction of cell death in cancer, i.e., reversing mdr and in inducing death of cancer cells without significant toxicity to normal tissues, which appear to be pharmacologically beyond prevention of metastasis in cancer, are found in the specifically defined present compounds.

[12] = tested on: epidermoid carcinoma A431 cells; conditions: cited from earlier work
[13] = tested on: cells; assay: Long-term assay (cell survival assay), toxicity to cells; type: cell-based; conditions: long-term assays (cell survival assay)
Protocol: as §6

## CC(C)C[C@H](NC(=O)[C@@H]1O[C@H]1C(=O)OCc1ccccc1)C(=O)N1CCN(C/C=C/c2ccccc2)CC1 [TOP-009, Bis[benzyl (2R,3R)-3-[(S)-3-methyl-1-[4-(3-phenyl-2-propenyl)piperazin-1-ylcarbonyl]butylcarbamoyl]oxirane-2-carboxylate] Sulfate]
[1]; HS-578T, alone
  anti-neoplastic activity (LDH release) / potency compared to NCO-700: higher potency
[2]
  anti-neoplastic activity (% LDH release) compared with NCO-700: significantly greater activity than NCO-700 itself

## COc1cccc2c1C(=O)c1c(O)c3c(c(O)c1C2=O)C[C@@](O)(C(=O)CO)C[C@@H]3O[C@H]1C[C@H](N)[C@H](O)[C@H](C)O1 [adriamycin]
[3]
  side effects: inevitable side effects such as hair loss, weight loss, and liver and kidney damage

## CCOC(=O)[C@@H]1O[C@H]1C(=O)N[C@@H](CC(C)C)C(=O)N1CCN(C/C=C/c2ccccc2)CC1 [TOP-008, Bis[ethyl (2R,3R)-3-[(S)-3-methyl-1-[4-(3-phenyl-2-propenyl)piperazin-1-ylcarbonyl]butylcarbamoyl]oxirane-2-carboxylate] Sulfate]
[4]
  anti-neoplastic activity (LDH release): excellent activity
[5]
  anti-neoplastic activity (LDH release): excellent activity
[6]
  anti-neoplastic activity (LDH release): excellent activity
[1]; HS-578T, 25 μM, 1,000 and 1,500 cells/well (FIGS. 34, 35)
  anti-neoplastic activity (% LDH released): very good anti-neoplastic activity
[1]; HS-578T, alone
  kill rate of breast cancer cells relative to NCO-700: approximately three-fold
  anti-neoplastic activity (LDH release) / potency compared to NCO-700: higher potency; also recorded: highest potency
[1]; conclusion of Experiment 1
  anti-neoplastic potency relative to NCO-700: three-fold
[2]
  anti-neoplastic activity (% LDH release) compared with NCO-700: significantly greater activity than NCO-700 itself
[7]
  effective dose compared with NCO-700: much lower
[8]
  induction of apoptosis: induced apoptosis in human breast cancer cells
[9]
  DNA fragmentation: significant DNA fragmentation
[10]
  anti-neoplastic activity (cell survival): highly active anti-neoplastic agent (apoptosis agent) and in some cases is much more active than NCO-700

## CC(C)C[C@H](NC(=O)[C@H]1O[C@@H]1C(=O)O)C(=O)NCCCCN=C(N)N [E-64]
[11]
  effectiveness in cancer cells having multidrug resistance / induction of cell death: not to be particularly effective in cancer cells having multidrug resistance

## CCOC(=O)[C@H]1O[C@@H]1C(=O)N[C@@H](CC(C)C)C(=O)NCCC(C)C [E-64-d]
[12]; A431 cells, chemically defined medium
  cell cycle arrest: arrested at mitotic metaphase
[12]; Shoji-Kasai et al.
  effect on growth of cancer cells: slows the growth of cancer cells

## CC(C)C[C@H](NC(=O)[C@@H]1O[C@H]1C(=O)Oc1ccccc1)C(=O)N1CCN(C/C=C/c2ccccc2)CC1 [TOP-013, Bis[phenyl (2R,3R)-3-[(S)-3-methyl-1-[4-(3-phenyl-2-propenyl)piperazin-1-ylcarbonyl]butylcarbamoyl]oxirane-2-carboxylate] Sulfate]
[1]; HS-578T, alone
  anti-neoplastic activity (LDH release) / potency compared to NCO-700: higher potency

## CCCC[C@@H](C=O)NC(=O)[C@H](CC(C)C)NC(=O)[C@H](CC(C)C)NC(C)=O [Calpain Inhibitor 1, N-acetyl-leu-leu-norleucinal] (Ac-Leu-Leu-[Nle]-aldehyde)
[13]
  toxicity to the cells: toxic to the cells
[13]; listed as Calpain inhibitor I
  toxicity to the cells: its toxicity may be an obstacle
[11]
  effectiveness in cancer cells having multidrug resistance / induction of cell death: slightly effective
